Assays:
Pimephales promelas = conditions: chronic/long-term; duration: 32 days; growth
Daphnia magna = conditions: chronic/long-term; duration: 21 days; reproduction
Hypoaspis aculeifer = conditions: acute; duration: 14 days
Apis mellifera = conditions: acute; oral; unspecified; mortality
Folsomia candida = conditions: chronic/long-term; duration: 28 days

## COc1nc(C)nc(NC(=O)NS(=O)(=O)c2ccccc2OCCCl)n1 [Triasulfuron]
Pimephales promelas
  NOEC: 36.6 mg/L
Daphnia magna
  NOEC: 10 mg/L
Hypoaspis aculeifer
  NOEC: 100 mg/kg
Rattus norvegicus; acute, mortality
  LD50: > 5000 mg/kg
Rattus norvegicus; chronic
  NOAEL: 50 mg/kg-day
Colinus virginianus; acute, oral, diet, mortality
  LC50: > 5000 mg/kg
Colinus virginianus; acute, oral, mortality
  LD50: > 2150 mg/kg
Colinus virginianus; reproduction developmental
  NOEL: 94 mg/kg-day
Apis mellifera
  LD50: > 100 µg/piece
Folsomia candida
  NOEC: 100 mg/kg
Tagia sp.; acute, duration: 14 days, mortality
  LC50: > 1000 mg/kg
Tagia sp.; chronic/long-term, duration: 8 weeks
  NOEC: 50.8 mg/kg
